From patent US12121530B2, “Composition and methods for treating articulating joint disorders with nucleoside reverse transcriptase inhibitors” (RHODE ISLAND HOSPITAL, priority 2018, dated 2024)
“Also recorded” adds a separate entry of the source.

Assays:
[1] = test system: C28 transiently over-express miR-365; experiment: C28 transiently over-expressing miR-365 treated with 3TC, RT-qPCR; type: cell-based, human
Procedure: Cells were seeded onto desired size plates to reach 70-90% confluence and transfected with miR-365 mimic or miRNA mimic negative control or miR-365 inhibitor or inhibitor negative control (Dharmacon®, Lafayette, Colo., USA). Lipofectamine 3000 (Invitrogen®, Waltham, Mass., USA) was used as transfection reagents. Medium is changed 24 hrs after transfection. 48 hrs post transfection, cells were lysated in either QIAzol for RNA purification and real-time PCR analysis or ice-cold lysis buffer containing protease inhibitor and phosphatase inhibitor for western blot analysis. MiR-365 mimic, miRNA mimic negative control, miR-365 inhibitor and inhibitor negative control were typically used at a final concentration of 25 nM unless otherwise stated.
(§1) Both miRNA and mRNA were extracted using miRNeasy Mini Kit (Qiagen®, Germantown, Md., USA) and reversely transcribed using miScriptIIRT Kit (Qiagen®, Germantown, Md., USA) according to manufacturer's instruction. qPCR was performed using SYBR Green PCR master mix (Qiagen®, Germantown, Md., USA) on a Bio-Rad CFX96 real-time PCR detection system (Bio-Rad®, Hercules, Calif., USA). Amplification conditions are as follows: 95° C. for 10 min, 40 cycles of 95° C. for 10″, 55° C. for 30″, and 72° C. for 30″. 18S ribosomal or GAPDH RNA was used as an internal control gene to normalize the mRNAs level. The ubiquitously expressed snRNA U6 was used as an endogenous control for miRNAs level. Primers were synthesized by Integrated DNA Technologies (http://www.idtdna.com). The primers for miR-365 were purchased from Qiagen. Fold changes of mRNA and miRNAs were calculated by the 2^^(ΔΔCt) method and normalized to 18S/GAPDH or U6 snRNA, respectively.

[2] = test system: 129S6/SvEv mice; experiment: DMM induced OA (PTOA) in 129S6/SvEv mice, oral 3TC or FTC; type: in vivo, mouse; details: for Adamts5 mRNA in cartilage / Col10 (Col 10a1) mRNA in cartilage / Line-1 level in cartilage / Mmp13 mRNA in cartilage / miR-365 induction by DMM: DMM mice, qPCR, versus Saline; for body weights, drug versus control treatment groups: DMM or Sham mice, drug in water from 8 weeks old for 4 weeks; for DMM induced proteoglycan loss in surgical knees: histology, drug in water for 4 weeks; for DMM induced OA / cartilage joint degeneration (Safranin O, OARSI quantification): oral administration for 1 month from 2-month-old
Excerpt: 12956/SvEv strain male mice were purchased from Taconic (https://www.taconic.com/mouse-model/129s6) at their age of 7-week-old. At least 3-day (72-hrs) acclimation period must be given to mice before any further procedures occurred to them. All 12956/SvEv strain mice throughout the studies were male.
129S6/SvEv male mice were chosen for experimental subjects at their age of 8-week-old. To create mouse injury/trauma induced OA model, medial meniscus ligament was transected using a previously described method (Lohmander, L. S., et al. Am J Sports Med 35, 1756-1769 (2007)). Briefly, 8-week-old male mice were anesthetized using either intraperitoneal (IP) injection of Ketamine/Dexmedetomidine or isoflurane to carry out medial parapatellar arthrotomy. Transection was made with a stab knife (Sharpoint™, Cat. 72-1551). At Weeks 12, mice were euthanized and dissected for histological examination as well as cartilage RNA extraction. 12 mice were used for each group/time point.
Paraffin sections were de-paraffinized in 2 changes of xylene, 10 mins each, followed by re-hydration in 2 changes of 100% alcohol, 5 mins each; 2 changes of 95% alcohol, 5 mins each; 70% alcohol for 5 mins. Sections were then rinsed in running tap water for 2 mins before stained with 0.4% fast green solution (Sigma, Cat. F-7258, St. Louis, Mo. 63103 USA) for 2 mins however the latter timing must be empirically controlled to assure desired coloration. Stained sections were then quickly rinsed with 1% acetic acid solution (Sigma, Cat. 695092-500ML-GL, St. Louis, Mo. 63103 USA) for no more than 10-15 sec. 0.1% Safranin O Solution was used for staining proteoglycan however the actual timing must be carefully determined based on actual coloring condition, for maximally 10 mins. After Safranin O staining, sections were submerged in 2 changes of 95% alcohol, 2 mins each, 2 changes of 100% alcohol, 2 mins each for de-hydration. Lastly, sections were cleared in 2 changes of xylene, 2 mins each, and mounted using resinous mounting medium (ACRYMOUNT™, Cat. SL80-4, McKinney, Tex. 75069 USA).
To histologically evaluate OA severity, we quantified Safranin O stained knee sections according to OARSI semi-quantitative system as previously described^3.
as §1

[3] = test system: mouse primary chondrocytes; experiment: RT-qPCR gene expression in mouse primary chondrocytes treated with 3TC or FTC at various dosages; type: cell-based; details: mouse chondrocytes (FIG. 3H), western blot Line-1-ORF1
[4] = test system: human chondrocyte cell line-C28; experiment: gene expression in human chondrocyte cell line C28 treated with 3TC; type: cell-based
Procedure: as §1, with “respectively. […]” for “respectively.”

[5] = human chondrocytes over-expressing miR-365, various concentrations
[6] = human chondrocytes C28, RNA level, various dosages

Structure (SMILES) | Adamts5 mRNA in cartilage [2] | Col10 (Col 10a1) mRNA in cartilage [2] | Line-1 level in cartilage [2] | Mmp13 mRNA in cartilage [2] | miR-365 induction by DMM [2] | body weights, drug versus control treatment groups [2] | DMM induced proteoglycan loss in surgical knees [2] | DMM induced OA / cartilage joint degeneration (Safranin O, OARSI quantification) [2] | further results
Nc1ccn([C@@H]2CS[C@H](CO)O2)c(=O)n1 [3TC, lamivudine] | significantly repressed | significantly repressed | inhibition | significantly repressed | significantly prohibit | No appreciable difference | effectively prevent | significantly prevented; also recorded: significantly inhibited | ACAN suppression by miR-365 [1, 5]: rectifies; miR-365 induced up-regulation of ADAMTS5 [1, 5]: completely abolishes; miR-365 induced up-regulation of COL10 [1, 5]: completely abolishes; miR-365 induced up-regulation of IHH [1, 5]: completely abolishes; miR-365 induced up-regulation of LINE-1 [1, 5]: completely abolishes; effect of miR-365 on L1, ADAMTS5, IHH, COL10A1 and ACAN levels ([1]; miR-365 transfected human chondrocytes (FIG. 3O-3T)): abolished and in some cases even reversed; L1 expression at protein level [3]: inhibited; Acan expression [4, 6]: promotes; also recorded: stimulated; Adamts5 expression [4, 6]: inhibited; COL10 (COL10A1) expression [4, 6]: inhibited; IHH expression [4, 6]: inhibits; Line-1 expression [4, 6]: inhibited; MMP13 expression [4, 6]: inhibited; COL2A1 expression ([4]; human chondrocytes, RNA level): stimulated
Nc1nc(=O)n([C@@H]2CS[C@H](CO)O2)cc1F [FTC, 2′,3′-dideoxy-5-fluoro-3′-thiacytidine] | significantly repressed | significantly repressed | inhibition | significantly repressed | significantly prohibit | No appreciable difference | effectively prevent | significantly prevented; also recorded: significantly inhibited | 
